This is an account of results in patent US20250241925A1, “METHODS OF P21 SUPPRESSION FOR BONE REGENERATION AND HEALING” (UWM Research Foundation, Inc., priority 2022, published 2025).

Structures are written as SMILES.

Data set [1] has as its system MSCs. Description: Cytotoxicity (MTT assay) of UC2288 in purified MSCs. Type of data set: cell-based, mouse (C57BL/6). The procedure: All procedures with animals were approved by the IACUC at the University of Wisconsin-Milwaukee. The mice used for this study were C57BL/6 (Charles River, MA). Fifteen 8-week-old male mice were euthanized by CO2 inhalation. After checking for a heartbeat, a cervical dislocation was performed followed by checking for any signs of breathing again for precautionary measures. After confirming that there were no signs of breathing, the tibia and the femur were extracted and placed in phosphate buffered saline (PBS) (Corning Inc., NY). A bone marrow flush with a 23-gauge, 0.5-inch needle (Becton Dickinson, NJ) was performed in a biosafety hood and the pelleted bone marrow cell suspension was plated in a 60×15 mm Primaria cell culture dish (Corning Inc., NY) in MesenCult Basal Medium (Mouse) that contained 50 mL MesenCult 10× Supplement (Mouse) and 0.5 mL MesenPure 1000× (STEMCELL Technologies, Vancouver, Canada). The plates were incubated at 37° C. in a 5% CO2 humidified atmosphere. After 24 hours, half the medium volume was removed, and fresh medium was added. The media in the cultures were renewed every other day. As the cells reached confluency, they were detached by treatment with 0.5% Trypsin-EDTA (Thermo Fisher Scientific, MA) and replated into a 100×20 mm Primaria cell culture dish (Corning Inc.) and eventually into a T-25-cm^2 Primaria flask (Corning Inc, NY). […]

In data set [2] the test system is MSCs. Briefly: Osteogenic differentiation of MSCs, Alizarin Red S staining of calcium deposits. Type of data set: cell-based, mouse (C57BL/6). The procedure:
In order to test whether UC2288 can improve osteogenic capacity of MSCs, the purified MSCs were differentiated into osteoblasts after interaction with UC2288. For osteogenic differentiation experiment, 84,000 cells were added into wells of a 24-well plate (Corning Inc., NY). Each concentration of UC2288, i.e., 2.5 μM, 5 μM, and 10 μM were tested in triplicates along with their controls which had no drugs but simply DMEM media and incubated for a period of 24- and 48-hours. After the designated time periods, the drug solutions were aspirated out of each well. To test for osteogenesis at different concentrations, relevant media were added to cells and renewed every other day for up to 21 days.
The osteogenic media consisted of 1 nM of dexamethasone, 50 μg/mL of L-Ascorbic acid, and 10 mM of β-glycerophosphate (Sigma-Aldrich, MO) in 50 mL DMEM.
After 21 days of culture, cells were stained following the appropriate staining protocol. […]
This experiment tested the ability of cells that interacted with the UC2288 drug to generate bone-forming osteoblast cells. […] After staining each well by following an osteogenic staining protocol, the area of the stains was analyzed using ImageJ and the data were graphed in GraphPad Prism. […]

A further data set relates to fractured tibiae. Briefly: MicroCT imaging of fracture healing in mice after post-fracture UC2288 injection (Example 4). It counts as in vivo. The following applies: five 0.1 mL 10 μM injections at days 3, 5, 7, 10, 14; 21 days post-injury. The procedure: Male wildtype mice (n=10) aged between 8-10 weeks were selected for this study. Future experiments will also include aged mice (e.g., ˜18 months of age). […] The mice had their tibiae fractured at the beginning of the study. Five mice were considered controls and received five injections of saline solution at days 3, 5, 7, 10, and 14 post-injury. The other five mice were injected five times with 0.1 mL 10 μM of UC2288 solution at days 3, 5, 7, 10, and 14 post-injury. At 21 days post-injury, mice were sacrificed, and their tibiae were excised. These bones were imaged using a microCT system that can differentiate between bone and soft tissue.

A further data set concerns Sp7 (Osterix). Briefly: Gene expression analysis (qPCR, ΔΔCt) in HuMSCs: Sp7. The following applies: 7 days. It counts as cell-based, human. The procedure: (§1) Human umbilical cord derived mesenchymal stem cells (HuMSCs) were plated in a 24 well plate at a density of 30,000 cells per well. Samples were divided as controls—no drug, no differentiation media; osteogenic control—no drug, DMEM media supplemented with factors to induce osteogenesis including dexamethasone, L-ascorbic acid, and beta-glycerol phosphate; 2.5, 5, and 10 μM wells consisted of DMEM media supplemented respective concentrations of UC2288. Media was renewed in all wells every other day. After 7 days, all samples were processed to extract total RNA. Next, cDNA was produced and qPCR was performed for gene expression analyses. Three genes of interest were analyzed-RunX2, Sp7 (Osterix), and CDKN1A (p21). RunX2 and Sp7 are genes responsible for osteoblast differentiation and take part in osteogenesis. To analyze the data, the ΔΔCt method was employed against an 18s endogenous control and DMEM media without differentiation factors or drugs as reference controls. The ΔΔCt can be described as:
(§2) Relative mRNA expression of sample=2^−ΔΔCt of sample,
(§3) where ΔΔCt of sample=(Ct of sample−Ct of 18s of sample)−(Ct of reference control−Ct of 18s of reference control).
For orientation: Quantitative PCR measures a nucleic acid by following its amplification.

The test system of the next data set is RunX2. Description: Gene expression analysis (qPCR, ΔΔCt) in HuMSCs: RunX2. It counts as cell-based, human. The following applies: 7 days. The procedure:
as §1, §2, §3

The next data set concerns CDKN1A (p21). Briefly: Gene expression analysis (qPCR, ΔΔCt) in HuMSCs: p21. Type of data set: cell-based, human. The following applies: 7 days. The procedure:
as §1, §2, §3

In data set [3] the test system is transverse tibial fracture. Briefly: Microtomography imaging of transverse tibial fracture callus (Example 6). To be noted: 10 μM, 0.1 mL at days 3, 5, 7, 10, 14; 4 weeks post-fracture. Type of data set: in vivo, C57BI/6 wildtype mice. As to the method:
All protocols were approved by IACUC at UWM. C57BI/6 wildtype mice at 8 weeks of age were administered a transverse tibial fracture. The mice were injected with 10 μM of UC2288 solution at a volume of 0.1 mL at days 3, 5, 7, 10, and 14. The mice were sacrificed 4 weeks post-fracture and their tibiae were excised. The bone samples were placed in 10% formalin for two days followed by placement in 70% ethanol until they were ready for microCT imaging. Each sample was placed on a holder and few drops of phosphate buffered saline were placed along with the sample. The sample was scanned using a microCt (Zeiss Xradia Versa X-ray microscope) scanner at a 15 μm thickness per slice. The data was contoured using MIMICS (Materialise NV) followed by data analysis via Python. […] See FIG. 7A-B. The black and white images show where bone was automatically thresholded via ImageJ.

As for `O=C(Nc1ccc(Cl)c(C(F)(F)F)c1)N[C@H]1CC[C@H](Oc2ccc(C(F)(F)F)cn2)CC1` [UC2288, 1-(4-chloro-3-(trifluoromethyl)phenyl)-3-((1r,4r)-4-((5-(trifluoromethyl)pyridin-2-yl)oxy)cyclohexyl)urea], the “proliferation of the MSCs (MTT, absorbance 540 nm) versus positive control DMEM media” value in the data set with MSCs [1] (2.5, 5 and 10 μM UC2288, 24 hours) was “No significant difference”. In addition, in the data set on MSCs [1] (2.5, 5 and 10 μM UC2288, 48 hours), the “proliferation of the MSCs (MTT, absorbance 540 nm) versus positive control DMEM media” value is given as “No significant difference”. In addition, the “area of osteogenic stained cells, comparison of 2.5, 5 and 10 μM” value with MSCs [2] (5 μM UC2288 at 24 hr) is “most osteogenic stained cells”. Besides, the “staining for calcium deposits in osteoblasts from MSCs versus DMEM control” value with MSCs [2] (10 μM UC2288 for 24 hr, 21 days osteogenic culture) is “Greater staining”. Further, the “bone formation/healing versus saline control mice (microCT)” value in the data set with fractured tibiae was “more bone formation/healing”. For the same compound, the “Sp7 expression compared to the osteogenic positive control” value in the data set with Sp7 (Osterix) (5 μM) is on record as “increased osteogenic potential”. For the same compound, the “Sp7 expression compared to the osteogenic positive control” value in the data set with Sp7 (Osterix) (10 μM) is listed as “increased osteogenic potential”. Moreover, in the data set with Sp7 (Osterix) (all concentrations (2.5, 5, 10 μM)), the “Sp7 expression compared to the control” value is given as “increased osteogenic gene expression”. Also, the “effect on osteogenic markers compared to 2.5 and 10 μM” value with RunX2 (5 μM) is given as “most significant effect”. Moreover, in the data set with RunX2 (2.5, 5, 10 μM), the “RunX2 expression compared to controls” value is “increased osteogenic potential” and the “RunX2 expression compared to the osteogenic control” value is given as “less than the osteogenic control”. For the same compound, the “expression of p21 in HuMSCs” value with CDKN1A (p21) (2.5 μM) is “reduced p21 expression”. Also, the “expression of p21 in HuMSCs” value with CDKN1A (p21) (5 μM) was “reduced p21 expression”. In the data set on CDKN1A (p21) (10 μM), the “expression of p21 in HuMSCs” value is listed as “increased expression”. In addition, in data set [3], the “callus Surface Area (microCT)” value is reported as 0.1147 mm^2, the “callus Surface Area Pixels (microCT)” value was found to be 7611878.877 Pixels, the “callus Volume (microCT)” value is 0.4206 mm^3 and the “callus Volume Pixels (microCT)” value came to 27919486 Pixels.
